ChEMBL document CHEMBL1201862, “PubChem BioAssay data set” (2004)
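96-well plates; 48 h exposure; 5 concentrations. Endpoints by linear interpolation between flanking doses. Not reached: highest tested concentration assigned. GI50 is the concentration that inhibits growth by half.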 Activity calls are given as the source filed them. No stated cut-off is given here; in the data, active = GI50 up to about 1.1 µM and inactive = higher.

Experiments:
Test in all cases: NCI anticancer screen, dose series, 48 h
A498 = system: A498
Malme-3M = system: Malme-3M
OVCAR-8 = system: OVCAR-8
NCI-H522 = system: NCI-H522
HT-29 = system: HT-29
OVCAR-4 = system: OVCAR-4
SW-620 = system: SW-620
TK-10 = system: TK-10
SN12C = system: SN12C
SF-268 = system: SF-268
PC-3 = system: PC-3
CCRF-CEM = system: CCRF-CEM
M14 = system: M14
SNB-75 = system: SNB-75
U-251 = system: U-251
IGROV-1 = system: IGROV-1
NCI-H23 = system: NCI-H23
OVCAR-3 = system: OVCAR-3
K562 = system: K562
SF-295 = system: SF-295

Structure (SMILES) | GI50 (A498) | GI50 (Malme-3M) | GI50 (OVCAR-8) | GI50 (NCI-H522) | GI50 (HT-29) | GI50 (OVCAR-4) | GI50 (SW-620) | GI50 (TK-10) | GI50 (SN12C) | GI50 (SF-268) | GI50 (PC-3) | GI50 (CCRF-CEM) | GI50 (M14) | GI50 (SNB-75) | GI50 (U-251) | GI50 (IGROV-1) | GI50 (NCI-H23) | GI50 (OVCAR-3) | GI50 (K562) | GI50 (SF-295)
c1ccc(CN[C@]23C4C5CC6C7C5C2C7[C@@](NCc2ccccc2)(C64)N3Cc2ccccc2)cc1 (stereo partly specified) | > 100 µM (inactive) | > 100 µM (inactive) | > 100 µM (inactive) | 91.8 µM (inactive) | > 100 µM (inactive) | > 100 µM (inactive) | > 100 µM (inactive) | > 100 µM (inactive) | > 100 µM (inactive) | > 100 µM (inactive) | > 100 µM (inactive) | > 100 µM (inactive) | > 100 µM (inactive) | > 100 µM (inactive) | > 100 µM (inactive) | > 100 µM (inactive) | > 100 µM (inactive) | > 100 µM (inactive) | > 100 µM (inactive) | > 100 µM (inactive)
Cc1c2ccccc2nc2[nH]c3ccncc3c12 | 42.9 µM (inactive) | 31 µM (inactive) | 31.3 µM (inactive) | 36.1 µM (inactive) | 28.2 µM (inactive) | 45.6 µM (inactive) | 23.9 µM (inactive) | 19.3 µM (inactive) | 13.1 µM (inactive) | 11.1 µM (inactive) | 38.3 µM (inactive) | 0.957 µM (active) | 32.8 µM (inactive) | 86.3 µM (inactive) | 30.1 µM (inactive) | 29.5 µM (inactive) | 33 µM (inactive) | 30.3 µM (inactive) | 51.5 µM (inactive) | 31.6 µM (inactive)
Cc1nc(O)nc2nc3ccc(Cl)cc3c(NC(C)(CO)CO)c12 | > 100 µM (inactive) | > 100 µM (inactive) | 72.3 µM (inactive) | 24.2 µM (inactive) | > 100 µM (inactive) | > 57 µM (inactive) | > 100 µM (inactive) | 41.4 µM (inactive) | > 100 µM (inactive) | 40.6 µM (inactive) | 57.9 µM (inactive) | > 26.8 µM (inactive) | > 100 µM (inactive) | 24.2 µM (inactive) | 36.8 µM (inactive) | 49.9 µM (inactive) | 63.5 µM (inactive) | > 61.2 µM (inactive) | > 100 µM (inactive) | 66.5 µM (inactive)
COc1c2c(cc3c1OCO3)C13C=CC(OC)CC1N(CC3)C2.[O-][Cl+3]([O-])([O-])O (stereo unspecified) | > 100 µM (inactive) | > 100 µM (inactive) | > 100 µM (inactive) | > 100 µM (inactive) | 71 µM (inactive) | 49.3 µM (inactive) | > 100 µM (inactive) | > 100 µM (inactive) | > 100 µM (inactive) | > 100 µM (inactive) | > 100 µM (inactive) | > 100 µM (inactive) | > 100 µM (inactive) | > 100 µM (inactive) | > 100 µM (inactive) | > 100 µM (inactive) | > 100 µM (inactive) | > 100 µM (inactive) |  | > 100 µM (inactive)
CNC(=O)/C(=C/c1ccc(OC)cc1)c1cc(OC)c(OC)c(OC)c1 | 3.51 µM (inactive) | 0.887 µM (active) | 4.12 µM (inactive) | 0.735 µM (active) | 0.593 µM (active) | 21.3 µM (inactive) | 0.802 µM (active) | > 44.1 µM (inactive) | 5.2 µM (inactive) | 4.83 µM (inactive) | 1.03 µM (active) | 2.32 µM (inactive) | 1.45 µM (inactive) | 1.14 µM (inactive) | 2.81 µM (inactive) | 4.76 µM (inactive) | 3.52 µM (inactive) | 0.641 µM (active) | 0.546 µM (active) | 0.552 µM (active)
CC(=O)Oc1ccc(-c2cc3ccccc3oc2=O)cc1 | 38.9 µM (inactive) | > 100 µM (inactive) | > 100 µM (inactive) | 21.8 µM (inactive) | > 100 µM (inactive) | > 100 µM (inactive) | > 100 µM (inactive) | > 100 µM (inactive) | > 100 µM (inactive) | > 100 µM (inactive) | > 100 µM (inactive) | > 100 µM (inactive) | > 100 µM (inactive) | 56.6 µM (inactive) | > 100 µM (inactive) |  | > 100 µM (inactive) | 6.27 µM (inactive) | 83.4 µM (inactive) | 43.9 µM (inactive)
CCOC(=O)CCC(NC(=O)OCc1ccccc1)C(=O)NC(CCC(=O)OCC)C(=O)NC(CCC(=O)OCC)C(=O)NC(CCC(=O)OCC)C(=O)NC(CCC(=O)OCC)C(=O)NC(CCC(=O)OCC)C(=O)NC(CCC(=O)OCC)C(=O)OCC (stereo unspecified) | 84.9 µM (inactive) | 90.6 µM (inactive) | > 100 µM (inactive) | 43.5 µM (inactive) | > 100 µM (inactive) | > 100 µM (inactive) | > 100 µM (inactive) | > 100 µM (inactive) | > 100 µM (inactive) | > 100 µM (inactive) | > 100 µM (inactive) | 72.9 µM (inactive) | > 100 µM (inactive) | 40.5 µM (inactive) | > 100 µM (inactive) |  | > 100 µM (inactive) | 86.9 µM (inactive) | > 100 µM (inactive) | 
